Measured values: patent US7947688B2, “N-[3-(3-substituted-pyrazolo[1,5-a]pyrimidin-7-yl)phenyl]-sulfonamides, and compositions, and methods related thereto” (Ferrer Internacional, S.A., priority 2003, dated 2011)

Columns and labels:
α2-GABAA receptor = α2-GABAA receptor (Rattus norvegicus, UniProt P18508+P23576); experiment: Ligand-binding assay, radiolabeled flumazenil competition, rat spinal cord membranes; conditions: for inhibition at 10 µM: read-out: % Inhibition (10^−5 M), affinity for α2-GABAA receptor; for inhibition at 0.1 µM: read-out: % Inhibition (10^−7 M), affinity for α2-GABAA receptor
Description: Determination of the affinity of test compounds for α1- and α2-GABAA receptor.
Male Sprague-Dawley rats weighing 200-250 g at the time of experiment were used. After decapitation of the animal, the cerebellum (tissue that mostly contains α1-GABAA receptor) and spinal cord (tissue that mostly contains α2-GABAA receptor) were removed. The membranes were prepared according to the method by J. Lameh et al. (Prog. Neuro-Psychopharmacol. Biol. Psychiatry, 24, 979-991, 2000). Once the tissues weighed, they were suspended in 50 mM Tris.HCl (pH 7.7), 1:40 (v/v), homogenized and then centrifuged at 20000 g for 10 min at 7° C. The resulting pellet was resuspended under the same conditions and centrifuged again. The pellet was finally resuspended on a minimum volume and kept at −80° C. overnight. On the next day, the process was repeated until the final pellet was resuspended at a ratio of 1:10 (v/v).
Affinity was determined by competitive tests using radiolabeled flumazenil as ligand. The tests were performed according to the methods described by S. Arbilla et al. (Eur. J. Pharmacol., 130, 257-263, 1986); and Y. Wu et al. (Eur. J. Pharmacol., 278, 125-132, 1995). The membranes containing the study receptors, flumazenil (radiolabeling at a final concentration of 1 nM) and ascending concentrations of test compounds (in a total volume of 500 μl in […] [ph 7.4] Tris.HCl buffer) were incubated. Simultaneously, the membranes were only incubated with the radiolabeled flumazenil (total binding, 100%) and in the presence of an elevated concentration of unradiolabeled flumazenil (non-specific binding, % estimation of radiolabeled ligand). The reactions started on adding the radiolabeled ligand followed by incubation for 60 minutes at 0° C. At the end of the incubation period, the tubes were filtered using a Brandel Mod. M-48R harvester and then washed three times with cold test buffer. The harvester was fitted with a GF/B filter that retained the membranes containing the receptors and the radiolabeled ligand which had been bound to the receptors. Then the filters were removed and left till dry. Once dried, the filters were cut, placed in vials with scintillation liquid and left under stirring overnight. The next day the filters were counted using a Packard Mod. Tricarb scintillation counter.
X: amount of bound ligand for every concentration of compound.
T: total binding, maximum amount bound to the radiolabeled ligand.
N: non-specific binding, amount of radiolabeled ligand bound in a non-specific way irrespective of the receptor used.
Every concentrations of compound were tested in duplicate and their mean values were used to determine the experimental values of % specific binding versus the concentration of compound. […] Inhibition constants (Ki) were calculated from the IC50 values according to Cheng-Prusoff's formula (Y. Cheng y W. H. Prusoff, Biochem. Pharmacol., 22(23), 3099-3108, 1973).

male CD1 mice = experiment: Predictive sedation-hypnosis test in mice (motor activity, crossings); assay type: in vivo; conditions: single equimolecular intraperitoneal dose, crossings over 30 min after dosing (first 5 min discarded) versus control
Description: • In vivo determination of predictive sedative-hypnotic action.
The in vivo effects of these compounds were assessed by a predictive sedation-hypnosis test in mice (D. J. Sanger et al., Eur. J. Pharmacol., 313, 35-42, 1996; and G. Griebel et al., Psychopharmacology, 146, 205-213, 1999). Groups of 5-8 male CD1 mice, weighing 22-26 g at the time of test, were used. The test compounds were administered in single equimolecular intraperitoneal doses, suspended in 0.25% agar with one drop of Tween in a volume of 10 ml/kg. Control animals received the vehicle alone. Using an Actisystem DAS16 (Panlab, S. L., Spain) the crossings (number of counts) were recorded for each mouse at 5-min intervals during a period of 30 minutes after dosing. The inhibition percentage of crossings of treated animals versus control animals (the first 5 min were discarded) was calculated.

Row | Compound | inhibition at 10 µM (α2-GABAA receptor) [%] | inhibition at 0.1 µM (α2-GABAA receptor) [%] | % Motor Activity Inhibition (male CD1 mice) [%]
1 | CN(c1cccc(-c2ccnc3c(C(=O)c4ccc(F)cc4)cnn23)c1)S(C)(=O)=O [Example 51, N-methyl-N-{3-[3-(fluorobenzene-4-carbonyl)-pyrazolo[1,5-a]pyrimidin-7-yl]-phenyl}-methanesulfonamide] | 94.7 | 16.8 | 90.04
2 | CCN(c1cccc(-c2ccnc3c(C(=O)c4ccc(F)cc4)cnn23)c1)S(C)(=O)=O [Example 52, N-ethyl-N-{3-[3-(fluorobenzene-4-carbonyl)-pyrazolo[1,5-a]pyrimidin-7-yl]-phenyl}-methanesulfonamide] | 61.2 | 0 | 92.83
3 | CCS(=O)(=O)N(C)c1cccc(-c2ccnc3c(C(=O)c4ccc(F)cc4)cnn23)c1 [Example 53, N-methyl-N-{3-[3-(fluorobenzene-4-carbonyl)-pyrazolo[1,5-a]pyrimidin-7-yl]-phenyl}-ethanesulfonamide] | 89.8 | 1 | 94.89
4 | CCN(c1cccc(-c2ccnc3c(C(=O)c4ccc(OC)cc4)cnn23)c1)S(C)(=O)=O [Example 58, N-ethyl-N-{3-[3-(4-methoxybenzoyl)-pyrazolo[1,5-a]pyrimidin-7-yl]-phenyl}-methanesulfonamide] | 93.8 | 24 | 93.31
5 | Cc1ccc(C(=O)c2cnn3c(-c4cccc(N(C)S(C)(=O)=O)c4)ccnc23)cc1 [Example 63, N-methyl-N-{3-[3-(4-methylbenzoyl)-pyrazolo[1,5-a]pyrimidin-7-yl]-phenyl}-methanesulfonamide] | 91.3 | 0 | 95.32
6 | CCN(c1cccc(-c2ccnc3c(C(=O)c4ccc(C)cc4)cnn23)c1)S(C)(=O)=O [Example 64, N-ethyl-N-{3-[3-(4-methylbenzoyl)-pyrazolo[1,5-a]pyrimidin-7-yl]-phenyl}-methanesulfonamide] | 61.5 | 20.9 | 90.32
7 | C#CCN(c1cccc(-c2ccnc3c(C(=O)c4ccc(C)cc4)cnn23)c1)S(C)(=O)=O [Example 68, N-2-propynyl-N-{3-[3-(4-methylbenzoyl)-pyrazolo[1,5-a]pyrimidin-7-yl]-phenyl}-methanesulfonamide] | 92.7 | 31.6 | 87.78
8 | CN(c1cccc(-c2ccnc3c(C(=O)c4ccccc4)cnn23)c1)S(C)(=O)=O [Example 69, N-methyl-N-{3-[3-(benzoyl)-pyrazolo[1,5-a]pyrimidin-7-yl]-phenyl}-methanesulfonamide] | 99 | 36.7 | 96.90
9 | CCN(c1cccc(-c2ccnc3c(C(=O)c4ccccc4)cnn23)c1)S(C)(=O)=O [Example 70, N-ethyl-N-{3-[3-(benzoyl)-pyrazolo[1,5-a]pyrimidin-7-yl]-phenyl}-methanesulfonamide] | 99.9 | 63.4 | 94.54
10 | CCN(c1cccc(-c2ccnc3c(C(=O)c4ccccc4)cnn23)c1)S(=O)(=O)CC [Example 72, N-ethyl-N-{3-[3-(benzoyl)-pyrazolo[1,5-a]pyrimidin-7-yl]-phenyl}-ethanesulfonamide] | 98.6 | 44.9 | 93.78
11 | CN(c1cccc(-c2ccnc3c(C(=O)c4cccs4)cnn23)c1)S(=O)(=O)CC(F)(F)F [Example 76, N-methyl-N-{3-[3-(thiophene-2-carbonyl)-pyrazolo[1,5-a]pyrimidin-7-yl]-phenyl}-2,2,2-trifluoroethane-sulfonamide] | 41.7 | 0 | 78.36
12 | CN(c1cccc(-c2ccnc3c(C(=O)c4cccs4)cnn23)c1)S(=O)(=O)c1ccccc1Cl [Example 77, N-methyl-N-{3-[3-(thiophene-2-carbonyl)-pyrazolo[1,5-a]pyrimidin-7-yl]-phenyl}-2-chlorobenzene-sulfonamide] | 88.5 | 13.8 | 70.12
13 | CN(c1cccc(-c2ccnc3c(C(=O)c4cccs4)cnn23)c1)S(=O)(=O)c1cccc(Cl)c1 [Example 78, N-methyl-N-{3-[3-(thiophene-2-carbonyl)-pyrazolo[1,5-a]pyrimidin-7-yl]-phenyl}-3-chlorobenzenesulfonamide] | 36.2 | 0 | 36.12
14 | CN(c1cccc(-c2ccnc3c(C(=O)c4cccs4)cnn23)c1)S(=O)(=O)c1ccc(Cl)cc1 [Example 79, N-methyl-N-{3-[3-(thiophene-2-carbonyl)-pyrazolo[1,5-a]pyrimidin-7-yl]-phenyl}-4-chlorobenzenesulfonamide] | 52.9 | 0 | 51.50
15 | CN(c1cccc(-c2ccnc3c(C(=O)c4cccs4)cnn23)c1)S(=O)(=O)c1ccccc1C#N [Example 82, N-methyl-N-{3-[3-(thiophene-2-carbonyl)-pyrazolo[1,5-a]pyrimidin-7-yl]-phenyl}-2-cyanobenzene-sulfonamide] | 31.8 | 0 | 39.87
16 | CN(c1cccc(-c2ccnc3c(C(=O)c4cccs4)cnn23)c1)S(=O)(=O)c1cccc(C#N)c1 [Example 83, N-methyl-N-{3-[3-(thiophene-2-carbonyl)-pyrazolo[1,5-a]pyrimidin-7-yl]-phenyl}-3-cyanobenzene-sulfonamide] | 94.4 | 39.1 | 53.38
17 | CN(c1cccc(-c2ccnc3c(C(=O)c4cccs4)cnn23)c1)S(=O)(=O)c1ccc(C#N)cc1 [Example 84, N-methyl-N-{3-[3-(thiophene-2-carbonyl)-pyrazolo[1,5-a]pyrimidin-7-yl]-phenyl}-4-cyanobenzene-sulfonamide] | 89.5 | 0 | 68.98
18 | CN(c1cccc(-c2ccnc3c(C(=O)c4cccs4)cnn23)c1)S(=O)(=O)c1cccs1 [Example 87, N-methyl-N-{3-[3-(thiophene-2-carbonyl)-pyrazolo[1,5-a]pyrimidin-7-yl]-phenyl}-2-thiophene-sulfonamide] | 97.6 | 65.1 | 74.88
19 | Cc1nc(C)c(S(=O)(=O)N(C)c2cccc(-c3ccnc4c(C(=O)c5cccs5)cnn34)c2)s1 [Example 91] | 84.1 | 4.8 | 72.85
20 | CN(c1cccc(-c2ccnc3c(C(=O)c4cccs4)cnn23)c1)S(=O)(=O)C1CC1 [Example 92, N-methyl-N-{3-[3-(thiophene-2-carbonyl)-pyrazolo[1,5-a]pyrimidin-7-yl]-phenyl}-cyclopropyl-sulfonamide] | 95.7 | 36.5 | 74.36
21 | C=CS(=O)(=O)N(C)c1cccc(-c2ccnc3c(C(=O)c4cccs4)cnn23)c1 [Example 94, N-methyl-N-{3-[3-(thiophene-2-carbonyl)-pyrazolo[1,5-a]pyrimidin-7-yl]-phenyl}-vinylsulfonamide] | 99.5 | 41.2 | 88.69
